According to patent publication US7595320B2, “Hydrazinocarbonyl-thieno[2,3-C]pyrazoles, process for preparing them, compositions containing them and use thereof” (Aventis Pharma S.A., priority 2005, dated 2009):
pIC50: −log10 of the molar value. Where a name gives a salt, the structure may show the parent alone.

Experiments:
Format in all cases: biochemical
Tie2 = biological target: T1, Tie2 (Homo sapiens, UniProt Q02763); assay: Tie2 kinase test, phosphorylation of PLC with GST-Tie2; details: GST-Tie2 intracellular domain 776-1124
T1 construct: amino acids of the intracellular domain 776-1124; made in house; host or cells: baculovirus expression (pFastBacGT vector)
Protocol: The coding sequence of human Tie2 corresponding to the amino acids of the intracellular domain 776-1124 was generated by PCR using the cDNA isolated from a human placenta as a model. This sequence was introduced into a pFastBacGT baculovirus expression vector in the form of a GST fusion protein.
The inhibitory effect of the molecules is determined in a test of phosphorylation of PLC with Tie2 in the presence of GST-Tie2 purified to about 80% homogeneity. The substrate is composed of the SH2-SH3 fragments of PLC expressed in the form of a GST fusion protein.
The kinase activity of Tie2 is measured in a MOPS 20 mM pH 7.2 buffer, containing 10 mM MgCl2, 10 mM MnCl2, 1 mM DTT, 10 mM of glycerophosphate. In a 96-well FlashPlate plate maintained on ice, a reaction mixture is deposited, composed of 70 μL of kinase buffer containing 100 ng of enzyme GST-Tie2 per well. Next, 10 μL of the test molecule diluted in DMSO to a maximum concentration of 10% are added. For a given concentration, each measurement is performed four times. The reaction is initiated by adding 20 μL of solution containing 2 μg of GST-PLC, 2 μm of cold ATP and 1 μCi of ^33P[ATP]. After incubation for one hour at 37° C., the reaction is stopped by adding 1 volume (100 μl) of 200 mM EDTA. After removal of the incubation buffer, the wells are washed three times with 300 μL of PBS. The radioactivity is measured on a MicroBeta1450 Wallac.
The inhibition of the Tie2 activity is calculated and expressed as a percentage of inhibition relative to the control activity determined in the absence of compound.

Aurora1 = biological target: T2, Aurora1 (Homo sapiens, UniProt Q96GD4); assay: Aurora1 enzymatic test, NuMA phosphorylation with [33P]ATP, Flashplate; details: Aurora-B/INCENP-C3 recombinant complex, 1 μM ATP
T2 construct: His tag (N); made in house
Protocol: (§1) The inhibitory effect of compounds with respect to the kinases Aurora1 and Aurora2 is determined by means of an enzymatic test using radioactivity detection.
(§2) The kinase activity of Aurora1 and Aurora2 is evaluated via the phosphorylation of the substrate Numa-histidine in the presence of radiolabelled ATP ([^33P]ATP) using 96-well Flashplate plates in which the nickel chelate is bound to the surface of the microplate. The amount of ^33P phosphate incorporated into the NuMA substrate is proportional to the activity of the enzyme Aurora1 or Aurora2.
Aurora1: Aurora-B/INCENP-C3 recombinant complex, purified to about 50%, the N-terminal end of Aurora-B of which has been labeled with histidine.
(§3) NuMA (nuclear protein that combines with the mitotic apparatus): 424-amino acid fragment, expressed in E. coli, the N-terminal end of which has been labeled with histidine, and used as substrate for the two Aurora enzymes.
(§4) The microplates used are 96-well Flash-Plate plates, nickel chelate (Perkin-Elmer, model SMP107).
(§5) The products to be evaluated are incubated in a reaction volume of 100 μL per well, in the presence of 10 nM of Aurora1 or Aurora2, 500 nM of NuMA substrate in a buffer composed of 50 mM Tris/HCl (pH 7.5), 50 mM NaCl, 5 mM MgCl2 (Aurora-B) or 10 mM MgCl2 (Aurora-A) and 1 mM DTT, at 37° C.
(§6) 80 μL of enzyme/substrate incubation buffer are distributed in each well, followed by 10 μL of product to be evaluated, at variable concentrations. The reaction is initiated by adding 1 μM final of ATP containing 0.2 μCi of [^33P]ATP (10 μL). After incubating for 30 minutes, the reaction is quenched by simple removal of the reaction buffer and each well is washed twice with 300 μl of Tris/HCl buffer. The radioactivity is then measured in each well using a Packard, Top-Count model scintillation machine.
(§7) The control enzymatic activity of Aurora is expressed by the number of counts per minute obtained over 30 minutes after subtracting the background noise (reaction mixture containing no enzyme). The evaluation of the various test products is expressed as a percentage of inhibition of the Aurora activity relative to the control.

Aurora2 = biological target: T3, Aurora2 (Homo sapiens, UniProt O14965); assay: Aurora2 enzymatic test, NuMA phosphorylation with [33P]ATP, Flashplate; details: whole recombinant protein, 1 μM ATP
T3 construct: Aurora2: whole recombinant protein comprising an N-terminal histidine tail; His tag (N); made in house; host or cells: E. coli
T3 sequence (O14965 1-403): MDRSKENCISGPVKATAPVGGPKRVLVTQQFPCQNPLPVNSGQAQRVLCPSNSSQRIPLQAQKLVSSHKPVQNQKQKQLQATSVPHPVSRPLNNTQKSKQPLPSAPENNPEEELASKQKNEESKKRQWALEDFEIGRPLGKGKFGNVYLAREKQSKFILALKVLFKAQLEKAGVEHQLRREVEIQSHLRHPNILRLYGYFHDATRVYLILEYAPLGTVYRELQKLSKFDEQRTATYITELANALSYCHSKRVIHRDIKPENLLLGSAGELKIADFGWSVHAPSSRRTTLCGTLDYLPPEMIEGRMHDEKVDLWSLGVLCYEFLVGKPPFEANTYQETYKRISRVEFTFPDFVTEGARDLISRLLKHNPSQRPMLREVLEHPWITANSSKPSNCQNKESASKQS
Protocol: as §1, §2
Aurora2: whole recombinant protein comprising an N-terminal histidine tail, was expressed in E. coli and purified to more than 82%.
as §3, §4, §5, §6, §7

CDK2/cycline E = biological target: T4, CDK2/cycline E (Homo sapiens, UniProt P24941); assay: CDK2/cyclineE Flashplate test in 96-well format; details: CDK2/cycline E complex, 1 μM ATP
T4 construct: made in house; host or cells: Sf21 insect cells (baculovirus coinfection)
Protocol: Two recombinant baculoviruses bearing the human sequences coding, respectively, for CDK2 and cyclineE (the latter bearing a C-terminal hexahistidine tag) are used to coinfect Sf21 insect cells. Two to three days after the start of coinfection, the cells are harvested by centrifugation and then stored at −40° C. until the time of use.
A format in streptavidin-coated 96-well plates is used to test the activity of the compounds on the kinase activity of CDK2/cycline E.
To perform this test, the biotinylated peptide substrate, a fragment of the protein pRb (biotinyl-[…]-OH), is dissolved at a concentration of 1 mM in kinase buffer (HEPES/NaOH 50 mM, NaCl 1 mM, MgCl2 5 mM, pH 7.5) in order to constitute a stock solution stored at −20° C. in the form of 110 μL aliquots. On the day of the experiment, an aliquot of this solution is thawed and diluted in kinase buffer containing 1 mM of dithiothreitol, added to the buffer extemporaneously, in order to obtain a concentration of 14.3 μM. 70 μL of this solution are added to each well of the Flashplate in order to obtain a final substrate concentration of 10 μM during the enzymatic reaction performed in a final volume of the reaction medium of 100 μL (cf. below).
Intermediate dilutions of inhibitors (products of the invention) at various concentrations are prepared in DMSO from stock solutions at 10 mM in separate tubes. Dilutions at 1000 μM, 333.3 μM, 111.1 μM, 37.03 μM, 12.35 μM, 4.11 μM and 1.37 μM are thus prepared. One μL of each of these solutions (or 1 μL of DMSO for the controls) is transferred into the wells of the test plate.
19 μl of a solution of a mixture of adenosine triphosphate (ATP) and of ATPγ^33P in kinase buffer at a total concentration of 5.26 μM of ATP and 52.6 μCi/ml of ^33P are then added to each well. The enzymatic reaction is initiated by adding 10 μL per well of a 200 nM solution of CDK2/cycline E in kinase buffer containing 1 mM of dithiothreitol (or 10 μL of kinase buffer containing 1 mM of dithiothreitol for the reaction blanks).
After addition of each of the reagents, the final volume of each well is 100 μL, the final concentration of substrate is 10 μM, the final inhibitor concentrations are 10 μM, 3.33 μM, 1.11 μM, 0.37 μM, 0.123 μM, 0.041 μM and 0.014 μM (according to the concentration of the intermediate dilution), the final ATP concentration is 1 μM, the final amount of ^33P is 1 μCi/well, and the final concentration of CDK2/cycline E complex is 20 nM.
After addition of all of the reagents, the test plate is incubated at 30° C. with orbital shaking at 650 rpm.
When the incubation is complete, the plate is washed three times with 300 μL per well of PBS (phosphate-buffered saline, pH=7.4, without calcium or magnesium, reference 10010-015, Gibco BRL). The incorporation of ^33P to the peptide is quantified by scintillation counting with a Packard Topcount.NXT machine.

T1 sequence (Q02763 776-1124): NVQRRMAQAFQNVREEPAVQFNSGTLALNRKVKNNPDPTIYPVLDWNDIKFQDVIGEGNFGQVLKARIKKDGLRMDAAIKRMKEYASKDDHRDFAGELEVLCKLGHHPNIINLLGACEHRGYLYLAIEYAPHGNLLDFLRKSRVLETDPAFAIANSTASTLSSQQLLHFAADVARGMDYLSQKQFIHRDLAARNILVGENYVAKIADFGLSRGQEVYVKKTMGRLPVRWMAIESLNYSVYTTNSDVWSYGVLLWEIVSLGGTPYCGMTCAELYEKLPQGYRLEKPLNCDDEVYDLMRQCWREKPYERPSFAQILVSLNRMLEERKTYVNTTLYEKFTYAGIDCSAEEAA
T2 sequence (Q96GD4 whole entry, species assumed): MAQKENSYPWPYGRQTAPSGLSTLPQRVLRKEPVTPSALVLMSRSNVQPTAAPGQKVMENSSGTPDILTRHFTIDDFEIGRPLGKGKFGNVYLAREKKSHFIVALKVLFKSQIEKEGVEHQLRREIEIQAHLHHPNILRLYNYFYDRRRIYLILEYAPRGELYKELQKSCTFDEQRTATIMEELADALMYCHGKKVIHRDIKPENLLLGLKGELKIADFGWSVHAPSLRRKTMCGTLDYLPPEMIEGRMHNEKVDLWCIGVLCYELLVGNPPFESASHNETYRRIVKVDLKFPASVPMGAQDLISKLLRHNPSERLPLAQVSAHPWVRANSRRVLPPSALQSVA
T2 sequence (Q9NQS7 835-903 partner limits assumed, species assumed): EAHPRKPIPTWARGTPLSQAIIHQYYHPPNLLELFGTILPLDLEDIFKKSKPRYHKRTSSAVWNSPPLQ

pIC50 (Tie2) | pIC50 (Aurora1) | pIC50 (Aurora2) | pIC50 (CDK2/cycline E) | SMILES
6.97 | 7.68 | 8.22 | 6.70 | CN1CCCN(c2ccc(C(=O)Nc3n[nH]c4sc(C(=O)NN(C)c5ccccc5)cc34)cn2)CC1 [Example 44, 6-(4-methyl[1,4]diazepan-1-yl)-N-[5-(N′-methyl-N′-phenylhydrazinocarbonyl)-1H-thieno[2,3-c]pyrazol-3-yl]nicotinamide]
5.51 | 7.02 | 7.59 | 6.56 | CN1CCN(c2ccc(C(=O)Nc3n[nH]c4sc(C(=O)NN5CCCCC5)cc34)cc2)CC1 [Example 31, N-(piperidin-1-yl)-3-[4-(4-methylpiperazin-1-yl)benzoylamino]-1H-thieno[2,3-c]pyrazole-5-carboxamide]
6.76 | 7.38 | 7.64 | 7.12 | COc1ccc(C(=O)Nc2n[nH]c3sc(C(=O)NNCc4ccccc4)cc23)cc1 [Example 26, N-[5-(N′-benzylhydrazinocarbonyl)-1H-thieno[2,3-c]pyrazol-3-yl]-4-methoxybenzamide]
7.25 | 7.49 | 7.70 | 7.27 | CCN(NC(=O)c1cc2c(NC(=O)c3ccc(N4CCN(C)CC4)cc3)n[nH]c2s1)c1ccc(F)cc1 [Example 37, N-{5-[N′-ethyl-N′-(4-fluorophenyl)hydrazinocarbonyl]-1H-thieno[2,3-c]pyrazol-3-yl}-4-(4-methylpiperazin-1-yl)benzamide]
6.37 | 6.70 | 7.19 | 6.84 | CCN(CC)CCNCc1ccc(C(=O)Nc2n[nH]c3sc(C(=O)NN(C)c4ccccc4)cc23)cc1 [Example 23a, 4-[(2-diethylaminoethylamino)methyl]-N-[5-(N′-methyl-N′-phenylhydrazinocarbonyl)-1H-thieno[2,3-c]pyrazol-3-yl]-benzamide]
6.17 | 6.85 | 7.64 | 6.82 | CN(NC(=O)c1cc2c(NC(=O)c3ccc(CN4CCNCC4)cc3)n[nH]c2s1)c1ccccc1 [Example 13a, N-[5-(N′-methyl-N′-phenylhydrazinocarbonyl)-1H-thieno[2,3-c]pyrazol-3-yl]-4-piperazin-1-ylmethylbenzamide]
6.48 | 6.60 | 7.60 | 6.50 | CC(C)N(Cc1ccc(C(=O)Nc2n[nH]c3sc(C(=O)NN(C)c4ccccc4)cc23)cc1)C(C)C [Example 25, 4-[(diisopropylamino)methyl]-N-[5-(N′-methyl-N′-phenylhydrazinocarbonyl)-1H-thieno[2,3-c]pyrazol-3-yl]benzamide trifluoroacetate]
6.15 | 6.67 | 7.14 | 7.11 | CC1CN(Cc2ccc(C(=O)Nc3n[nH]c4sc(C(=O)NN(C)c5ccc(Cl)cc5)cc34)cc2)CC(C)N1 (stereo not drawn) [Example 11b, 4-(3,5-dimethylpiperazin-1-ylmethyl)-N-[5-(N′-(4-chlorophenyl)-N′-methylhydrazinocarbonyl)-1H-thieno[2,3-c]pyrazol-3-yl]-benzamide]
6.97 | 8.22 | 8.70 | 6.88 | CN1CCN(c2ccc(C(=O)Nc3n[nH]c4sc(C(=O)NN(C)c5ccc(Cl)cc5)cc34)cc2)CC1 [Example 28, N-{5-[N′-(4-chlorophenyl)-N′-methylhydrazinocarbonyl]-1H-thieno[2,3-c]pyrazol-3-yl}-4-(4-methylpiperazin-1-yl)benzamide]
7.12 | 8.10 |  | 6.54 | CN1CCCN(c2ccc(C(=O)Nc3n[nH]c4sc(C(=O)NN(C)c5ccccc5)cc34)cc2)CC1 [Example 47, 4-(4-methyl[1,4]diazepan-1-yl)-N-[5-(N′-methyl-N′-phenylhydrazinocarbonyl)-1H-thieno[2,3-c]pyrazol-3-yl]benzamide]
8.10 | 7.89 |  | 7.00 | CCN(NC(=O)c1cc2c(NC(=O)c3ccc(N4CCN(C)CC4)cc3)n[nH]c2s1)c1ccccc1 [Example 33, N-[5-(N′-ethyl-N′-phenylhydrazinocarbonyl)-1H-thieno[2,3-c]pyrazol-3-yl]-4-(4-methylpiperazin-1-yl)benzamide]
